Results reported in patent publication US20260035367A1 (Celgene Corporation, priority 2021, published 2026).
Where two headings read alike, the source gives them in different places.

Legend:
[1] = biological target: T1, Recombinant human PKC-delta (His-tagged 345-676) (Homo sapiens, UniProt Q05655); assay: PKC-delta inhibition assay (HTRF KinEASE kit); format: biochemical; details: ratio, PKC-theta vs PKC-delta HTRF; for PKC-theta/PKC-delta selectivity (binned): binned A to G
T1 construct: PKC-delta (His-tagged 345-676); His
Procedure: PKC-theta and PKC-delta biochemical activities were measured using the PKC-theta HTRF KinEASEkit kit, according to manufacturer's instructions (Cisbio, catalogue number 61ST1PEJ). Briefly, the kinase buffer component of the kit was supplemented with 10 mM MgCl2, 1 mM DTT and 0.1% Tween 20. […] The streptavidin_XL665 and STK antibody-cryptate detection reagents were mixed according to the manufacturer's instructions. Test compounds were diluted in DMSO in a series of 10 semi-log step doses; 10 nL of each compound dose were dispensed in 384 well plates. […] The reaction was started by addition of the substrate and ATP and incubated at 25° C. for 30 minutes or 20 minutes for the PKC-theta and PKC-delta assays, respectively. The detection reagents were added, and the plate was incubated in the dark for 2 hours. […] The ratio of acceptor and donor emission signals was calculated for each well.

[2] = tested on: IL-2 secretion by human effector memory T cells (TEM); assay: Effector memory T cells IL-2 release assay (CD3/CD28 stimulation, HTRF IL-2 detection); format: cell-based; details: 24 h; for IC50: Homo sapiens, T-cell
Summary of the method: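 Human effector memory T cells from healthy-donor buffy coats were exposed in triplicate to ten semi-log doses of compound in 0.1% DMSO. The cells were stimulated and incubated 24 h at 37 °C. Secreted IL-2 in the supernatant was measured by HTRF.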

[3] = biological target: T2, Recombinant human PKC-theta (His-tagged 362-706) (Homo sapiens, UniProt Q04759); assay: PKC-theta inhibition assay (HTRF KinEASE kit); format: biochemical; details: ATP 6.5 μM, STK substrate 525 nM
T2 construct: Recombinant human PKC-theta (His-tagged 362-706); His
Summary of the method: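 IC50 values were from 4-parameter logistic fits of percent inhibition, based on acceptor/donor HTRF ratios over 10 semi-log compound doses. Kinase reactions, started with substrate plus ATP, ran 30 min at 25 °C in buffer supplemented with 10 mM MgCl2, 1 mM DTT and 0.1% Tween 20; detection lasted 2 h.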

[4] = binned A to G, read-out: PKC-theta IL2 pIC50 (binned) (converted)
[5] = read-out: PKC-theta IL2 pIC50 (converted)
[6] = binned A to H, read-out: PKC-theta HTRF pIC50 (binned) (converted)
[7] = read-out: PKC-theta HTRF pIC50 (converted)

T2 sequence (Q04759 362-706): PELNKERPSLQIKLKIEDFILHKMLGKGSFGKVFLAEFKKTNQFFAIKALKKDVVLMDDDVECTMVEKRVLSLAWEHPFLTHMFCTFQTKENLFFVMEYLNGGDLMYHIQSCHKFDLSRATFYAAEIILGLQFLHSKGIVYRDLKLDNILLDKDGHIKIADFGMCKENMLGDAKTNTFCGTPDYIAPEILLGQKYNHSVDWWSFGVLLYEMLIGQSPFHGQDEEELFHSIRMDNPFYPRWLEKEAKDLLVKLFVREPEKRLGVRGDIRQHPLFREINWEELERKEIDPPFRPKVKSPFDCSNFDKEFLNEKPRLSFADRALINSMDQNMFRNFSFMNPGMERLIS
T1 sequence (Q05655 345-676): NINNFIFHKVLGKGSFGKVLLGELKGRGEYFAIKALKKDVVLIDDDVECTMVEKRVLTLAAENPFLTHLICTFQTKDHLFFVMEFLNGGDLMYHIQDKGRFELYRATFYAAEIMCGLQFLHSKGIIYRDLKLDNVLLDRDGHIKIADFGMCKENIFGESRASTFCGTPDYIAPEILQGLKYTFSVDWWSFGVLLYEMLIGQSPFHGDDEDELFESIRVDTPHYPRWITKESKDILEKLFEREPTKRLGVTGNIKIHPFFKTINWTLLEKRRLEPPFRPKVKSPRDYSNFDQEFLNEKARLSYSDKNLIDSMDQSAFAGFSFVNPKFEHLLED

| SMILES | PKC-theta/PKC-delta selectivity [1] | PKC-theta/PKC-delta selectivity (binned) [1] | IC50 [2, 4] | IC50 [2, 5] | IC50 [3, 6] | IC50 [3, 7] | PKC-theta IL2 pIC50 (binned) ([2]; binned A to G) | PKC-theta IL2 pIC50 [2] |
| --- | --- | --- | --- | --- | --- | --- | --- | --- |
| O=c1[nH]c2nccc(-c3cccc(N4CCNCC4)c3)c2[nH]1 [Example 2] | 2 | F (a ratio of between 1 and 5) | > 1000 nM | 10000 nM | 316 to 1000 nM | 501 nM | – | – |
| CC1(O)C(=O)Nc2nccc(-c3cc(N4CCNCC4)ccc3F)c21 (stereo not drawn) [Example 60] | 4 | F (a ratio of between 1 and 5) | > 1000 nM | 1580 nM | 100 to 316 nM | 126 nM | – | – |
| C[C@@H]1CN(c2cc(C(F)(F)F)cc(-c3ccnc4c3[C@](C)(O)C(=O)N4)n2)[C@@H](C)CN1 (single isomer, unassigned) [Example 118] | 12 | D (a ratio of between 10 and 20) | 100 to 316 nM | 251 nM | 10 to 31.6 nM | 25.1 nM | – | – |
| C[C@@H]1CN(c2cc(C(F)(F)F)cc(-c3ccnc4c3[C@](C)(O)C(=O)N4)n2)[C@H](C)CN1 (single isomer, unassigned) [Example 119] | 12 | D (a ratio of between 10 and 20) | 100 to 316 nM | 200 nM | 3.16 to 10 nM | 3.98 nM | – | – |
| CC1(C)C(=O)Nc2nccc(-c3cccc(N(CC4COC4)C4CCNCC4)c3)c21 [Example 41] | 3 | F (a ratio of between 1 and 5) | > 1000 nM | 2000 nM | 31.6 to 100 nM | 79.4 nM | – | – |
| CC[C@@]1(C)C(=O)Nc2nccc(-c3cc(C(C)(F)F)cc(N4CCNC[C@H]4C)n3)c21 (single isomer, unassigned) [Example 202] | 22 | C (a ratio of between 20 and 30) | 31.6 to 100 nM | 50.1 nM | 3.16 to 10 nM | 3.98 nM | – | – |
| C[C@H]1NCCN(c2cc(C(F)(F)F)cc(-c3ccnc4c3C(C)(C)C(=O)N4)n2)[C@H]1C [Example 127] | 15 | D (a ratio of between 10 and 20) | – | 25.1 nM | 1 to 3.16 nM | 1.26 nM | C (a measured pIC50 of between 7.5 and 8.0) | – |
| COC1(C)C(=O)Nc2nccc(-c3cc(C(F)(F)F)cc(N4CCN[C@@H](C)C4)n3)c21 (stereo partly drawn) [Example 112] | 20 | C (a ratio of between 20 and 30) | 100 to 316 nM | 251 nM | 10 to 31.6 nM | 15.8 nM | – | – |
| C[C@H]1CN(c2cc(-c3ccnc4c3C(C)(O)C(=O)N4)cc(C(F)(F)F)c2)CCN1 (stereo partly drawn) [Example 78] | 11 | D (a ratio of between 10 and 20) | 100 to 316 nM | 158 nM | 10 to 31.6 nM | 15.8 nM | – | – |
| CC1(C)C(=O)Nc2nccc(-c3cccc(C4CCNCC4)c3)c21 [Example 45] | 2 | F (a ratio of between 1 and 5) | > 1000 nM | 3980 nM | 100 to 316 nM | 200 nM | – | – |
| C[C@H]1CN(c2cc(-c3ccnc4c3[C@@](C)(O)C(=O)N4)cc(C(F)(F)F)c2)CCN1 (single isomer, unassigned) [Example 82] | 3 | F (a ratio of between 1 and 5) | – | – | 316 to 1000 nM | 1000 nM | G (a measured pIC50<6.0) | 5.4 |
| C[C@@H]1CN(c2cc(Cl)cc(-c3ccnc4c3C(C)(O)C(=O)N4)n2)CCN1 (stereo partly drawn) [Example 73] | 11 | D (a ratio of between 10 and 20) | 100 to 316 nM | 126 nM | 3.16 to 10 nM | 6.31 nM | – | – |
| C[C@@H]1CNCCCN1c1cc(C(F)(F)F)cc(-c2ccnc3c2C(C)(C)C(=O)N3)n1 [Example 190] | 32 | B (a ratio of between 30 and 50) | 31.6 to 100 nM | 79.4 nM | 3.16 to 10 nM | 3.16 nM | – | – |
| CC[C@H]1CN(c2cc(C(F)(F)F)cc(-c3ccnc4c3C(C)(C)C(=O)N4)n2)CCN1 [Example 142] | 17 | D (a ratio of between 10 and 20) | 31.6 to 100 nM | 39.8 nM | 1 to 3.16 nM | 2 nM | – | – |
| C[C@@H]1CN(c2cc(C(F)(F)F)cc(-c3ccnc4c3C(C)(C)C(=O)N4)n2)[C@@H](C)CN1 [Example 117] | 10 | D (a ratio of between 10 and 20) | 100 to 316 nM | 200 nM | 10 to 31.6 nM | 12.6 nM | – | – |
| C[C@H]1CCN(c2cc(C(F)(F)F)cc(-c3ccnc4c3C(C)(C)C(=O)N4)n2)CCN1 [Example 183] | 25 | C (a ratio of between 20 and 30) | 100 to 316 nM | 126 nM | 3.16 to 10 nM | 6.31 nM | – | – |
| CC1C(=O)Nc2nccc(-c3cccc(C(=O)N4CCNCC4)c3)c21 (stereo not drawn) [Example 27] | 1 | F (a ratio of between 1 and 5) | > 1000 nM | 10000 nM | 316 to 1000 nM | 1000 nM | – | – |
| C[C@H]1CN(c2cc(C(F)(F)F)cc(-c3ccnc4c3C(C)(C)C(=O)N4)n2)CCN1 [Example 141] | 16 | D (a ratio of between 10 and 20) | 31.6 to 100 nM | 50.1 nM | 3.16 to 10 nM | 3.98 nM | – | – |
| C[C@@H]1NCCN(c2cc(C(F)(F)F)cc(-c3ccnc4c3[C@](C)(O)C(=O)N4)n2)[C@@H]1C [Example 126] | 12 | D (a ratio of between 10 and 20) | 10 to 31.6 nM | 25.1 nM | 1 to 3.16 nM | 1.26 nM | – | – |
| C[C@@]1(O)C(=O)Nc2nccc(-c3cc(C(F)(F)F)cc(N4CC5CCC4CN5)n3)c21 (single isomer, unassigned) [Example 138] | 16 | D (a ratio of between 10 and 20) | 316 to 1000 nM | 631 nM | 10 to 31.6 nM | 15.8 nM | – | – |
| C[C@@]1(O)C(=O)Nc2nccc(-c3cc(C(F)(F)F)cc(N4C[C@H]5CC[C@@H](C4)N5)n3)c21 (single isomer, unassigned) [Example 136] | 11 | D (a ratio of between 10 and 20) | 316 to 1000 nM | 501 nM | 10 to 31.6 nM | 25.1 nM | – | – |
| C[C@H]1CNCCN1c1cc(Cl)cc(-c2ccnc3c2[C@](C)(O)C(=O)N3)n1 (single isomer, unassigned) [Example 104] | 11 | D (a ratio of between 10 and 20) | 100 to 316 nM | 126 nM | 3.16 to 10 nM | 5.01 nM | – | – |
| CC[C@]1(C)C(=O)Nc2nccc(-c3cc(Cl)cc(N4CCN[C@@H](C)C4)n3)c21 (single isomer, unassigned) [Example 171] | 9 | E (a ratio of between 5 and 10) | 31.6 to 100 nM | 39.8 nM | 1 to 3.16 nM | 2.51 nM | – | – |
| C[C@@H]1NCCN(c2cc(C(F)(F)F)cc(-c3ccnc4c3C(C)(C)C(=O)N4)n2)[C@@H]1C [Example 169] | 16 | D (a ratio of between 10 and 20) | 31.6 to 100 nM | 100 nM | 3.16 to 10 nM | 7.94 nM | – | – |
| CC[C@@]1(C)C(=O)Nc2nccc(-c3cc(C(F)(F)F)cc(N4CCN[C@@H](C)C4)n3)c21 (single isomer, unassigned) [Example 154] | 19 | D (a ratio of between 10 and 20) | 100 to 316 nM | 126 nM | 3.16 to 10 nM | 7.94 nM | – | – |
| O=c1[nH]c2nccc(-c3cc(N4CCNCC4)ccc3F)c2[nH]1 [Example 15] | 3 | F (a ratio of between 1 and 5) | > 1000 nM | 10000 nM | 316 to 1000 nM | 501 nM | – | – |
| CCC1(C)C(=O)Nc2nccc(-c3cc(C(F)(F)F)cc(N4CCN[C@@H](C)C4)n3)c21 (stereo partly drawn) [Example 114] | 13 | D (a ratio of between 10 and 20) | 31.6 to 100 nM | 63.1 nM | 3.16 to 10 nM | 5.01 nM | – | – |
| CC[C@H]1CN(c2cc(Cl)cc(-c3ccnc4c3C(O)(CC)C(=O)N4)n2)CCN1 (stereo partly drawn) [Example 143] | 8 | E (a ratio of between 5 and 10) | 31.6 to 100 nM | 31.6 nM | 3.16 to 10 nM | 3.98 nM | – | – |
